Tests used:
Assay type in all cases: biochemical
[1] = molecular target: plasma kallikrein (PK) (Homo sapiens, UniProt P03952); experiment: Determining the inhibitory constants: inhibition of PK (substrate Bzl-Pro-Phe-Arg-pNA); conditions: Tris buffer pH 8.0, 25° C.; mean of at least three determinations
Method: (§1) The inhibitory effect for the individual enzymes was determined in analogy with a method which has already been described (Stürzebecher et al., J. Med. Chem. 40, 3091-3099, 1997).
(§2) After 3 min, the reaction was terminated by adding 25 μl of acetic acid (50%) and the absorption at […] was determined using a Microplate Reader (Labsystems iEMS Reader MF). The Ki values were determined, in accordance with Dixon (Biochem. J. 55, 170-171, 1953), by means of linear regression and using a computer program. The Ki values are the mean of at least three determinations.

[2] = molecular target: T1, human factor XIIa (Homo sapiens, UniProt P00748); experiment: Inhibitory constants for factor XIIa (substrate H-D-HHT-Gly-Arg-pNA, Chromozym XII); conditions: read-out: Ki F XIIa
T1 construct: purchased Haemochrom Diagnostica GmbH, Essen, Germany
T1 sequence (P00748 373-615 limits assumed, other chains not shown): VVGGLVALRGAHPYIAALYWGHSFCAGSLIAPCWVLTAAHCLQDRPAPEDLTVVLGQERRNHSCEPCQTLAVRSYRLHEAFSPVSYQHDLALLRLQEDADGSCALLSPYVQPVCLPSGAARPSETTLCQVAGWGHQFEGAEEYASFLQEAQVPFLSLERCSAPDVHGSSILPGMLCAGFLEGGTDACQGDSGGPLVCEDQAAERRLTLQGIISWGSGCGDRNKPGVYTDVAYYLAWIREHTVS
Method: as §1, §2
(§3) The inhibition of factor XIa and factor XIIa was determined in an analogous manner. When determining the inhibitory constants for human factor XIa (Haemochrom Diagnostica GmbH, Essen, Germany), H-D-Lys(Z)-Pro-Arg-pNA (Chromozym PCa, Roche Diagnostics GmbH, Mannheim, Germany) was used as the substrate.
H-D-HHT-Gly-Arg-pNA (Chromozym XII, Roche Diagnostics GmbH, Mannheim, Germany) was used as the substrate for measuring the inhibitory constants of human factor XIIa (Haemochrom Diagnostica GmbH, Essen, Germany).

[3] = molecular target: T2, human factor XIa (Homo sapiens, UniProt P03951); experiment: Inhibitory constants for factor XIa (substrate H-D-Lys(Z)-Pro-Arg-pNA, Chromozym PCa); conditions: read-out: Ki F XIa
T2 construct: purchased Haemochrom Diagnostica GmbH, Essen, Germany
T2 sequence (P03951 388-625 limits assumed): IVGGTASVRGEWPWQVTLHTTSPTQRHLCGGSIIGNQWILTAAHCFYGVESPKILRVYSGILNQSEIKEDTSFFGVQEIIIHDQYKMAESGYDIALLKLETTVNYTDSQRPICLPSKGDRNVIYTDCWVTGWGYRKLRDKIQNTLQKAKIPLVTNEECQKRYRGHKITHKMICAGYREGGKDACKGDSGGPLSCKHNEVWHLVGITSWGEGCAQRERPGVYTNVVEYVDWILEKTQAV
T2 sequence (P03951 19-387 partner limits assumed): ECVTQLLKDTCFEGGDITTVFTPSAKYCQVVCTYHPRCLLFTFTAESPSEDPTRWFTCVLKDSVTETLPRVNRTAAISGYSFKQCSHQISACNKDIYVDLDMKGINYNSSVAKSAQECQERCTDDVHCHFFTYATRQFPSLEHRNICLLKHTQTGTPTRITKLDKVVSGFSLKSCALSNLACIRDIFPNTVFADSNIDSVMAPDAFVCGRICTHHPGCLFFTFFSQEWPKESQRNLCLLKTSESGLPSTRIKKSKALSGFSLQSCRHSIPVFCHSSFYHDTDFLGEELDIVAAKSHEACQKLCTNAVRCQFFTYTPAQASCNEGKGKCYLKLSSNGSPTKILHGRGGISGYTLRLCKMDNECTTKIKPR
Method: as §1, §2, §3

[4] = molecular target: thrombin (UniProt P00735); experiment: Inhibitory constants for thrombin; conditions: read-out: Ki Thrombin

plasma kallikrein (PK), sequence (P03952 391-638 limits assumed, species assumed): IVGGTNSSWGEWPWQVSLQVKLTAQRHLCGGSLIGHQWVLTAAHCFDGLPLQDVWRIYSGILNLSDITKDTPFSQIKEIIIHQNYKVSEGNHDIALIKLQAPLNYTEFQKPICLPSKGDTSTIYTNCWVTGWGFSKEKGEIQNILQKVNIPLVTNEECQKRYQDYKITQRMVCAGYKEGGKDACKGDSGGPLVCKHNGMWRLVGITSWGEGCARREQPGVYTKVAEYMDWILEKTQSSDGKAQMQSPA
plasma kallikrein (PK), sequence (P03952 20-390 partner limits assumed, species assumed): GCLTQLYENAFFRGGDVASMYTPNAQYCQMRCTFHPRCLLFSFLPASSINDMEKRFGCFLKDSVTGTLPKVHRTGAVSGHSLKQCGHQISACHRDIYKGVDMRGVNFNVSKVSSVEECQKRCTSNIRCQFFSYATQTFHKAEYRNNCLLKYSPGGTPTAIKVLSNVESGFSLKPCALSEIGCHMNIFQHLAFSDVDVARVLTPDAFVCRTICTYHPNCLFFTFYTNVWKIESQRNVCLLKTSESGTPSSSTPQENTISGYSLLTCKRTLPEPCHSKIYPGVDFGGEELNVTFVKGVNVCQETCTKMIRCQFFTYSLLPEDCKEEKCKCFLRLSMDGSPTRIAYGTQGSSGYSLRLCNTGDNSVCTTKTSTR

Question: With CC(C)(C)OC[C@@H](NS(=O)(=O)Cc1ccccc1)C(=O)N[C@@H](CNC(=O)OCc1ccccc1)C(=O)NCc1ccc(C(=N)N)cc1 [Inhibitor 34] as the compound, how does the Ki [1] read?
Answer: Its Ki is 0.025 µM.

Question: What about the Ki [2] of the same compound?
Answer: Its Ki is 0.93 µM.

Question: And the Ki [3]?
Answer: Its Ki is 0.31 µM.

Question: What about the Ki [4] of the same compound?
Answer: The Ki was 0.37 µM.

Question: What does the source list for CC(C)(C)OC[C@@H](NS(=O)(=O)Cc1ccc(C(=O)O)cc1)C(=O)NCC(=O)NCc1ccc(C(=N)N)cc1 [Inhibitor 46]?
Answer: Ki [1]: 0.029 µM; Ki [2]: 7.5 µM; Ki [4]: 2.2 µM

Question: With COC(=O)c1ccc(CS(=O)(=O)N[C@H](CO)C(=O)NCC(=O)NCc2ccc(C(=N)N)cc2)cc1 [Inhibitor 21] as the compound, how does the Ki [1] read?
Answer: Its Ki is 4.2 µM.

Question: And the Ki [2]?
Answer: Its Ki is 42 µM.

Question: What about the Ki [3] of the same compound?
Answer: The Ki was 8.1 µM.

Question: What about the Ki [4] of the same compound?
Answer: The Ki was 9.4 µM.

Question: What does the source list for N=C(N)c1ccc(CNC(=O)[C@H](CCC(=O)O)NC(=O)[C@@H](CC2CCCCC2)NS(=O)(=O)Cc2ccccc2)cc1 [Inhibitor 57]?
Answer: Ki [1]: 0.03 µM; Ki [2]: 4 µM; Ki [3]: 0.02 µM; Ki [4]: 0.081 µM

Question: What does the source list for N=C(N)c1ccc(CNC(=O)[C@H](CCCCNC(=O)COCC(=O)NCCOCCOCCOCCOCCOCCOCCOCCN)NC(=O)[C@@H](CC2CCCCC2)NS(=O)(=O)Cc2ccccc2)cc1 [Inhibitor 58]?
Answer: Ki [1]: 0.059 µM; Ki [2]: 2 µM; Ki [3]: 0.23 µM; Ki [4]: 0.008 µM

Question: For N=C(N)c1ccc(CNC(=O)CNC(=O)[C@H](NS(=O)(=O)Cc2ccccc2)C2Cc3ccccc3C2)cc1 [Inhibitor 83], which Ki [1] is on record?
Answer: Its Ki is 0.075 µM.

Question: What about the Ki [2] of the same compound?
Answer: The Ki was 0.37 µM.

Question: And the Ki [4]?
Answer: The Ki was 0.14 µM.

Question: Which Ki [1] does the source give for N=C(N)c1ccc(CNC(=O)[C@H](CO)NC(=O)[C@@H](CO)NS(=O)(=O)Cc2ccccc2)cc1 [Inhibitor 15] here?
Answer: The Ki was 0.16 µM.

Question: And the Ki [2]?
Answer: Its Ki is 80 µM.

Question: And the Ki [3]?
Answer: The Ki was 0.3 µM.

Question: What about the Ki [4] of the same compound?
Answer: Its Ki is 14 µM.

Question: What does the source list for N=C(N)c1ccc(CNC(=O)[C@H](CCCCNC(=O)OCc2ccccc2)NC(=O)[C@@H](CO)NS(=O)(=O)Cc2ccccc2)cc1 [Inhibitor 11]?
Answer: Ki [1]: 0.0035 µM; Ki [2]: 15 µM; Ki [3]: 0.3 µM; Ki [4]: 0.18 µM

Question: Which results are given for N=C(N)c1ccc(CNC(=O)[C@H](CCCCNC(=O)OCc2ccccc2)NC(=O)[C@@H](CC2CCCCC2)NS(=O)(=O)Cc2ccccc2)cc1 [Inhibitor 54]?
Answer: Ki [1]: 0.02 µM; Ki [2]: 4 µM; Ki [3]: 0.34 µM; Ki [4]: 0.015 µM

Question: For N=C(N)NCc1cccc(C[C@@H](NS(=O)(=O)Cc2ccccc2)C(=O)NCC(=O)NCc2ccc(C(=N)N)cc2)c1 [Inhibitor 79], which Ki [1] is on record?
Answer: Its Ki is 0.075 µM.

Question: And the Ki [2]?
Answer: Its Ki is 0.31 µM.

Question: What about the Ki [3] of the same compound?
Answer: The Ki was 0.22 µM.

Question: And the Ki [4]?
Answer: Its Ki is 0.059 µM.

Question: With N=C(N)c1ccc(CNC(=O)CNC(=O)[C@@H](CC2CCCCC2)NS(=O)(=O)Cc2ccccc2)cc1 [Inhibitor 82] as the compound, how does the Ki [1] read?
Answer: Its Ki is 0.1 µM.

Question: And the Ki [2]?
Answer: Its Ki is 1.4 µM.

Question: What about the Ki [3] of the same compound?
Answer: Its Ki is 0.33 µM.

Question: What about the Ki [4] of the same compound?
Answer: Its Ki is 0.023 µM.

Question: What does the source list for N=C(N)c1ccc(CNC(=O)CNC(=O)C(CO)NS(=O)(=O)Cc2ccccc2)cc1 (stereo not shown) [Inhibitor 1]?
Answer: Ki [1]: 1.7 µM; Ki [2]: 16 µM; Ki [3]: 2.2 µM; Ki [4]: 13 µM

Question: What does the source list for N=C(N)c1ccc(CNC(=O)[C@H](Cc2ccccc2)NC(=O)[C@@H](CO)NS(=O)(=O)Cc2ccccc2)cc1 [Inhibitor 18]?
Answer: Ki [1]: 0.021 µM; Ki [2]: 0.97 µM; Ki [3]: 0.92 µM; Ki [4]: 1.6 µM

Question: How did the Ki [1] turn out when N=C(N)c1ccc(CNC(=O)[C@@H]2CCCN2C(=O)[C@@H](CC2CCCCC2)NS(=O)(=O)Cc2cccc(CNC(=O)CCCC(=O)O)c2)cc1 [Inhibitor 56] was run?
Answer: Its Ki is 0.044 µM.

Question: And the Ki [2]?
Answer: Its Ki is 5.6 µM.

Question: And the Ki [3]?
Answer: The Ki was 0.052 µM.

Question: And the Ki [4]?
Answer: Its Ki is under 0.001 µM.

Question: What does the source list for N#Cc1cccc(CS(=O)(=O)N[C@H](CC2CCCCC2)C(=O)N2CCC[C@H]2C(=O)NCc2ccc(C(=N)N)cc2)c1 [Inhibitor 52]?
Answer: Ki [1]: 0.086 µM; Ki [2]: 13 µM; Ki [4]: < 0.001 µM

Question: For N=C(N)c1ccc(CNC(=O)[C@H](CCC(=O)O)NC(=O)[C@@H](CO)NS(=O)(=O)Cc2ccccc2)cc1 [Inhibitor 5], which Ki [1] is on record?
Answer: The Ki was 1.1 µM.

Question: What about the Ki [2] of the same compound?
Answer: Its Ki is over 1000 µM.

Question: What about the Ki [4] of the same compound?
Answer: The Ki was 38 µM.

Question: Which results are given for N=C(N)NCCC[C@@H](NS(=O)(=O)Cc1ccccc1)C(=O)NCC(=O)NCc1ccc(C(=N)N)cc1 [Inhibitor 81]?
Answer: Ki [1]: 0.074 µM; Ki [2]: 0.35 µM; Ki [3]: 0.7 µM; Ki [4]: 1.4 µM

Question: For N=C(N)c1ccc(CNC(=O)[C@H](CCCCN)NC(=O)[C@@H](CO)NS(=O)(=O)Cc2ccccc2)cc1 [Inhibitor 10], which Ki [1] is on record?
Answer: Its Ki is 0.016 µM.

Question: And the Ki [2]?
Answer: Its Ki is 21 µM.

Question: And the Ki [3]?
Answer: Its Ki is 0.89 µM.

Question: What about the Ki [4] of the same compound?
Answer: Its Ki is 4.3 µM.

Question: What does the source list for CC(C)(C)OCC(NS(=O)(=O)Cc1ccccc1)C(=O)NC(CCOCc1ccccc1)C(=O)NCc1ccc(C(=N)N)cc1 (stereo not shown) [Inhibitor 43]?
Answer: Ki [1]: 0.0082 µM; Ki [2]: 80 µM; Ki [3]: 0.61 µM; Ki [4]: 0.5 µM

Question: For COC(=O)c1ccc(CS(=O)(=O)N[C@H](COC(C)(C)C)C(=O)NCC(=O)NCc2ccc(C(=N)N)cc2)cc1 [Inhibitor 47], which Ki [1] is on record?
Answer: Its Ki is 1.1 µM.

Question: What about the Ki [2] of the same compound?
Answer: The Ki was 4.8 µM.

Question: And the Ki [3]?
Answer: The Ki was 1.6 µM.

Question: What about the Ki [4] of the same compound?
Answer: Its Ki is 0.36 µM.
